Measured values published in paper PMC9458059, “Design, Synthesis and Biological Evaluation of New Carbohydrate-Based Coumarin Derivatives as Selective Carbonic Anhydrase IX Inhibitors via “Click” Reaction” (Molecules, 2022).
Where two headings read alike, the source gives them in different places.

How the values were obtained:
[1] = in vitro; settings: mouse, microsomes
[2] = Metabolic stability in mouse liver microsomes; settings: for CLint scaled at 1 μM / half-life at 1 μM: mouse, liver microsomes
[3] = molecular target: T1, hCA I (Homo sapiens, UniProt P00915); assay: CA inhibition by the esterase assay, hCA I; type: biochemical; settings: for IC50: human recombinant enzyme, 4-nitrophenylacetate as substrate
T1 construct: purchased
Protocol: (§1) The esterase assay was used for testing the inhibitory activities of target compounds against carbonic anhydrases. […] Next, the stock solution of inhibitor was diluted to the specified concentration by using analysis buffer. […] In addition, the purchased CA was diluted with analysis buffer and added to 96-well plates. Next, different concentrations of inhibitors were also added to 96-well plates. To form the inhibitors and enzymes complex, E-I solutions were preincubated together for 4 h before the test at room temperature. Meanwhile, the nonenzymatic hydrolysis rates were tested by the blank control experiments. The absorbances were determined by using multifunctional enzyme marking instrument.

[4] = molecular target: hCA II (Homo sapiens, UniProt P00918); assay: CA inhibition by the esterase assay, hCA II; type: biochemical; settings: human recombinant enzyme, 4-nitrophenylacetate as substrate
Protocol: as §1

[5] = molecular target: T2, hCA IX (Homo sapiens, UniProt Q16790); assay: CA inhibition by the esterase assay, hCA IX; type: biochemical; settings: for IC50: human recombinant enzyme, 4-nitrophenylacetate as substrate; for IC50 / Inhibition of hCA IX (in words): esterase assay; for Selectivity Ratio hCA I/hCA IX / Selectivity Ratio hCA II/hCA IX: ratio of IC50 values
T2 construct: purchased
Protocol: as §1

[6] = system: HT-29 cells; assay: Cell viability MTT assay, HT-29; type: cell-based; settings: Homo sapiens
Protocol: (§2) In the present study, the potential cytotoxicity of compounds 10a–10p was evaluated in vitro by MTT assay. […] So, half of each cell line were subjected to hypoxic conditions (0.5% O2, 5% CO2 and 94.5% N2) for inducing the expression of CA IX and the other half were incubated under normal conditions (normoxia). Subsequently, all synthesized derivatives were screened at a concentration of 100 μM to test their cytotoxicity in mentioned above cells.
(§3) The two human cancer cell lines were cultivated for 24 h at 37 °C in a 96-well plate. Subsequently, different concentrations of inhibitors were added to 96-well plate and then was incubated for 96 hours. After the MTT solution was added to per well, cancer cells were further incubated for 4 h at 37 °C. Finally, formazan crystals were dissolved by using DMSO. The cancer cells were from American Type Culture Collection.

[7] = system: MDA-MB-231 cells; assay: Cell viability MTT assay, MDA-MB-231; type: cell-based; settings: Homo sapiens
Protocol: as §2, §3

[8] = system: HT-29 cancer cells; assay: Extracellular pH measurement, HT-29; type: cell-based, human; settings: HT-29, 0.1 and 0.5 mM, 48 h, normoxia and hypoxia
Protocol: (§4) One important feature of CA IX is regulating the pH of tumor cells. The expression of CA IX in solid tumors will make the extracellular pH become more acidic to promote tumor growth and metastasis. Therefore, the effect on extracellular pH of the representative compounds 10a and 10h was tested in hypoxia and normoxic conditions. […] Especially, the extracellular acidification of these two cancer cells could be slightly reversed by this compound under normoxic condition. In addition, the reversal of extracellular acidification is more significant under hypoxia condition. Furthermore, a dose-dependent effect was observed.
(§5) Figure 3 Extracellular pH measurement after 48 h of HT-29 and MDA-MB-231 cancer cells in normoxia and hypoxia upon treatment with compound 10a and 10h (0.1 and 0.5 mM).

[9] = system: MDA-MB-231 cancer cells; assay: Extracellular pH measurement, MDA-MB-231; type: cell-based, human; settings: MDA-MB-231, 0.1 and 0.5 mM, 48 h, normoxia and hypoxia
Protocol: as §4, §5

[10] = system: MCF-10A cell line; assay: Cytotoxicity against normal cell line MCF-10A (MTT assay); type: cell-based; settings: Homo sapiens
[11] = Plasma stability assay; type: in vitro ADME; settings: male, SD, pH 7.4, rat plasma, 37 °C
Protocol: In fact, most drugs reach their targets to show their pharmacological activity via the circulation system, therefore, the plasma stability of the target compound is a crucial consideration for the evaluation of its druggability. Therefore, the in vitro plasma stability assay of the representative compound was also performed in this study.
Rat plasma was collected from adult male SD rats. The in vitro stability of 10a was determined in rat plasma and in PBS at 37 °C, at the meantime, samples were taken at time points 0, 10, 30, 60, and 120, and tested by HPLC. The rest of the time was incubated in a constant temperature shaker to compare different time points. Compare the peak areas of 10a in PBS or in rat plasma (pH = 7.4, 37 °C) before and after constant temperature incubation at different time points. The compounds in rat plasma were extracted with methanol, centrifuged, and repeated three times, and then detected with a preparative liquid phase at 254 wavelength.

[12] = molecular target: T3, hERG channel (Homo sapiens, UniProt Q12809); assay: Inhibition evaluation on hERG K+ channel (whole-cell recording, HEK 293); type: cell-based; settings: HEK 293 cells stably transfected with hERG
T3 construct: expressed in transfected cells; host or cells: HEK 293
Protocol: HEK 293 cells were stably transfected with human Ether-a-gogo related gene (hERG) channel. The voltage-gated hERG potassium channel current was recorded at room temperature from randomly selected transfected cells using whole-cell recording technique with an EPC10 USB (HEKA) or Multiclamp 700 B amplifier (Molecular Devices) while electrical data was digitalized by Digidata1440 A with acquisition rate of 10 kHz and signals filtered at 2.5 KHz using Patchmaster or pClamp 10, respectively. Dofetilide was included as a positive control to ensure the accuracy and sensitivity of the test system. All experiments were performed in 3 times.

[13] = Acute toxicity assay in mice; settings: mouse, in vivo, oral, mice, expected from preliminary data
Protocol: (§6) Finally, acute toxicity of representative compounds was conducted in mice to preliminarily evaluate the risk of target compounds to mammals. […].
(§7) […]. After the compound was administered, the latency of death was observed and recorded over a span of 14 days. The experimental protocols were evaluated and approved by the ethics committee of the Shenyang Pharmaceutical University.

[14] = system: mice; assay: Acute toxicity assay in mice; settings: mouse, in vivo, 14 days
Protocol: as §6, §7

[15] = molecular target: CAI; settings: reported coumarins, Figure 1; cited from earlier work
[16] = molecular target: CAII; settings: reported coumarins, Figure 1; cited from earlier work
[17] = molecular target: CAIX; settings: reported coumarins, Figure 1; cited from earlier work
[18] = hypoxia (0.5% O2, 5% CO2 and 94.5% N2), read-out: Cell Viability (%) HT-29 Hypoxia
[19] = normoxia, read-out: Cell Viability (%) HT-29 Normoxia
[20] = hypoxia (0.5% O2, 5% CO2 and 94.5% N2), read-out: Cell Viability (%) MDA-MB-231 Hypoxia
[21] = normoxia, read-out: Cell Viability (%) MDA-MB-231 Normoxia

T1 sequence (P00915 whole entry): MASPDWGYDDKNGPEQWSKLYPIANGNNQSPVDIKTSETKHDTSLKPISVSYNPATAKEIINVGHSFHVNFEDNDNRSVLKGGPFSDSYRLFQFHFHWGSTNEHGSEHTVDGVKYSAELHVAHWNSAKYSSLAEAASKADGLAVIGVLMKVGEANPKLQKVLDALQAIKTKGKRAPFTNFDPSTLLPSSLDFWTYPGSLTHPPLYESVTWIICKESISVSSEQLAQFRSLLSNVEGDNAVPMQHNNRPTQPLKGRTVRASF
T3 sequence (Q12809 whole entry): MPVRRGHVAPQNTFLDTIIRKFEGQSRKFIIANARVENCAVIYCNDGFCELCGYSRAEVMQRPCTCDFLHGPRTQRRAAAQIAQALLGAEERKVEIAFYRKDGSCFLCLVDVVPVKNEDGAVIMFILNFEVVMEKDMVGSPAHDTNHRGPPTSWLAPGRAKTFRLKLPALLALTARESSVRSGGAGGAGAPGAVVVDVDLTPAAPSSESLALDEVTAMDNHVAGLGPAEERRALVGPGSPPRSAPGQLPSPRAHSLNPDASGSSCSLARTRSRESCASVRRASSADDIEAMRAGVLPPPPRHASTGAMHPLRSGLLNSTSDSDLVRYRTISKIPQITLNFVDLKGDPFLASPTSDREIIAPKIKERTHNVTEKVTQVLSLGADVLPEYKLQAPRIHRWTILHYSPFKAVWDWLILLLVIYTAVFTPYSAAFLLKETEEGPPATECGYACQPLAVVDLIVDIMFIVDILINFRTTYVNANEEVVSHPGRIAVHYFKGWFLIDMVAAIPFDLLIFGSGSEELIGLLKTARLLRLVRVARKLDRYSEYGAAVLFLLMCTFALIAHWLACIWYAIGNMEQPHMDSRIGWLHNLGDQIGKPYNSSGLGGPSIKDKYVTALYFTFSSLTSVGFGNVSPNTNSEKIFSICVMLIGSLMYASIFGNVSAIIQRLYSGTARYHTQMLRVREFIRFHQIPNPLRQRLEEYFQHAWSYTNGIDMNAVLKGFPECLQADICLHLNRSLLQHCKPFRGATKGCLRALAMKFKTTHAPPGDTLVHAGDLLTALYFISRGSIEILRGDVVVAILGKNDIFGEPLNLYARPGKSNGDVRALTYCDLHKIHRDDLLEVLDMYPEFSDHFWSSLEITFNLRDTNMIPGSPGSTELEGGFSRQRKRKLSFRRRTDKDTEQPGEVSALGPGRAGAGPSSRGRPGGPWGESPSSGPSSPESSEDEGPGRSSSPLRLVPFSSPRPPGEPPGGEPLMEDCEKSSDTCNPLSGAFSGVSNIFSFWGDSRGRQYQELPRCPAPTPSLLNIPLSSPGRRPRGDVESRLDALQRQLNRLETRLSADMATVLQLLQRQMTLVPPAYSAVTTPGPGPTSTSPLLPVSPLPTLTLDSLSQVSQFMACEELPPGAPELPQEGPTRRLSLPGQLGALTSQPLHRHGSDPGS

Structure (SMILES)	IC50 [3] [µM]	IC50 [4] [µM]	IC50 [5] [µM]	Selectivity Ratio hCA I/hCA IX [5]	Selectivity Ratio hCA II/hCA IX [5]	viability at 100 µM [6, 18] [%]	viability at 100 µM [6, 19] [%]	viability at 100 µM [7, 20] [%]	viability at 100 µM [7, 21] [%]	CLint scaled at 1 μM [2] [mL/min/kg]	half-life at 1 μM [2] [h]	Ki [15] [µM]	Ki [16] [µM]	Ki [17] [µM]	further results
O=C(O)Cc1ccccc1Nc1c(Cl)cccc1Cl [Diclofenac, reference compound]															half-life at 1 μM [1]: 0.667 h; CL ([2]; mouse liver microsomes, 1 μΜ test compound): 137.4 mL/min/kg
O=c1ccc2ccc(OCc3cn([C@@H]4O[C@H](CO)[C@@H](O)[C@H]4O)nn3)cc2o1 [Compound 10h, 7-[(1-β-. D-ribofuranosyl-1H-1,2,3-triazol-4-yl)methoxy]-2H-chromen-2-one]	23.3	19	0.132	177	144	43.5	54	37.2	63.7	4.21	21.7				Effect on extracellular acidification (extracellular pH) [8]: weaker reversal effect of extracellular acidification; Effect on extracellular acidification (extracellular pH) [9]: weaker reversal effect of extracellular acidification; melting point: 131.2 to 133.6 °C
O=c1ccc2ccc(OCc3cn([C@@H]4O[C@H](CO)[C@@H](O)[C@H](O)[C@H]4O)nn3)cc2o1 [Compound 10a, 7-[(1-β-. D-glucopyranosyl-1H-1,2,3-triazol-4-yl)methoxy]-2H-chromen-2-one]	33.2	21.5	0.011	3018	1955	32.5	40.2	32.9	51.3	4.76	19.2				Effect on extracellular acidification (extracellular pH) [8]: important impact on the extracellular acidification; Effect on extracellular acidification (extracellular pH) [9]: important impact on the extracellular acidification; IC50 [10]: > 100 µM; remaining at 0 h ([11]; time point 0 min): 100%; remaining at 10 min ([11]; time point 10 min): 115%; remaining at 0.5 h ([11]; time point 30 min): 93%; remaining at 1 h ([11]; time point 60 min): 86%; remaining at 2 h ([11]; time point 120 min): 102%; half-life ([11]; read-out: T1/2 plasma stability): > 20.5 h; IC50 [12]: > 50 µM; LD50 at 14 days [13]: > 1500 mg/kg; Survival Quantity/Total Quantity ([14]; 500 mg/kg): 5/5; Survival Quantity/Total Quantity ([14]; 1000 mg/kg): 5/5; Survival Quantity/Total Quantity ([14]; 1500 mg/kg): 5/5
Cc1cc(=O)oc2cc(O)ccc12 [4-Methylumbelliferone, 4-methyl-7-hydroxy coumarin, reference compound]	> 100	> 100	0.6									> 100	> 100	0.56	Inhibition of hCA I (in words) [3]: not at all inhibited; Inhibition of hCA IX (in words) [5]: weakly inhibited
O=c1ccc2ccccc2s1 [Thiocoumarin 3, thiocoumarin]												> 100			
S=c1ccc2ccccc2o1 [2-Thiocoumarin 4, 2-thioxocoumarin]												> 100	> 100	6.7	
Cc1cc(=O)oc2cc(O[C@@H]3O[C@H](CO)[C@@H](O)[C@H](O)[C@@H]3O)ccc12 [Compound 9]												> 100	> 100	0.0092	
S=c1ccc2ccccc2s1 [Dithiocoumarin 5, dithiocoumarin]												> 100	> 100		
O=c1ccc2ccccc2o1 [Compound 2]														> 50	
O=c1ccc2ccc(O)cc2o1 [Umbelliferone, 7-hydroxy coumarin]												> 58.4	> 100	0.478	Inhibition of hCA I (in words) [3]: not at all inhibited; Inhibition of hCA IX (in words) [5]: weakly inhibited
O=c1ccc2ccc(OCc3cn([C@@H]4O[C@H](CO)[C@@H](O)[C@H](O)[C@@H]4O)nn3)cc2o1 [Compound 10c, 7-[(1-β-. D-mannopyranosyl-1H-1,2,3-triazol-4-yl)methoxy]-2H-chromen-2-one]	17.5	24	0.015	1167	1600	40.2	42.6	38.3	55.2	4.07	22.4				IC50 [10]: > 100 µM; IC50 [12]: > 50 µM; LD50 at 14 days [13]: > 1500 mg/kg; Survival Quantity/Total Quantity ([14]; 500 mg/kg): 5/5; Survival Quantity/Total Quantity ([14]; 1000 mg/kg): 5/5; Survival Quantity/Total Quantity ([14]; 1500 mg/kg): 5/5
Cc1cc(=O)oc2cc(OCc3cn([C@@H]4O[C@H](CO)[C@@H](O)[C@H](O)[C@H]4O)nn3)ccc12 [Compound 10i, 7-[(1-β-. D-glucopyranosyl-1H-1,2,3-triazol-4-yl)methoxy]-4-methyl-2H-chromen-2-one]	32.1	14	0.084	382	167	42.6	48.5	33.2	65.2	3.83	23.9				melting point: 127.9 to 130.2 °C
O=c1ccc2ccc(OCc3cn([C@@H]4OC[C@H](O)[C@H](O)[C@H]4O)nn3)cc2o1 [Compound 10f, 7-[(1-β-. L-arabinopyranosyl-1H-1,2,3-triazol-4-yl)methoxy]-2H-chromen-2-one]	65.6	31.7	0.042	1562	755	38.1	48.7	33.8	65.6	3.75	24.4				melting point: 133.1 to 135.1 °C
Cc1cc(=O)oc2cc(O[C@@H]3O[C@H](CO)[C@@H](O)[C@H](O)[C@H]3O)ccc12 [Compound 8]												1	> 100	0.37	
